Data set [1] can be described thus: Pharmacokinetics of docetaxel after intravenous administration in rats. It counts as in vivo, Wistar rats. As to conditions: rat, HPLC. The method, then:
6- to 8-week old male Wistar rats were subjected to jugular vein catheterization. […] The rats were administered with a docetaxel solution (a free drug) and docetaxel-loaded PBCA nanoparticles with dual modifications by PEG20000-cholesterol, respectively. […] After treatment, the content of docetaxel in the blood was determined by HPLC.

Data set [2] has as its system 4T1 cells (mouse breast cancer cells). Nature of the data set: Inhibition of tumor cell proliferation in vitro, MTT. It counts as cell-based. As to conditions: 0.0001 nmol/ml (as docetaxel), 24 h. The method, then:
(2) Method: MTT method was used to determine the proliferation state of tumor cells. The particular steps were as followed: 4T1 cells (mouse breast cancer cells) in the logarithmic growth phase were digested and counted, and then seeded to a 96-well plate at a density of 5×10^4/well. […] After further incubation for 24 h and 48 h, respectively, the old medium was pipetted off, and a medium containing 0.5 mg/ml MTT was added to each well. After further incubation for 4 h, the medium was pipetted off, and washing with PBS was performed twice. DMSO (200 μl) was added to dissolve the formazan crystal, and shaking was performed in dark for 10 min; and then the OD value of each well at 490 nm was determined by ELISA instrument. The OD value of the cells incubated without the addition of drug was used as control (100%), and the cell viability for each drug groups were calculated, so as to study the proliferation state of tumor cells, wherein 5 parallel wells were set for each group.

Data set [3] is described as follows: Brain tissue distribution of docetaxel in rats. The format is in vivo, Wistar rats. Particulars: rat, tail vein injection, HPLC. How it is done:
The rats were subjected to tail vein injection with a docetaxel solution (a free drug), and docetaxel-loaded PBCA nanoparticles with dual modifications by PEG20000-cholesterol, respectively. The rats were killed at different time points after administration, respectively, and the brain tissues were taken, washed with physiological saline and weighed. After treatment, the content of docetaxel in the brain tissue was determined by HPLC.

Data set [4] in a line: Brain tissue distribution of coumarin-6 in rats, Experiment 1 (time course). It counts as in vivo, Wistar rats. Particulars: rat, tail vein injection.
Protocol: (1) Method: 6- to 8-week old male Wistar rats were randomly divided into 3 groups, with 21 rats for each group. The rats were subjected to tail vein injection with an equimolar amount of a coumarin-6 solution (a free drug), coumarin-6-loaded nanoparticles with single modification by cholesterol and PBCA nanoparticles with dual modifications by PEG20000-cholesterol as prepared in Example 1, respectively. The rats were killed at different time points (15 min, 30 min, 1 h, 2 h, 4 h, 8 h, 12 h) after administration, brain tissues were taken, and the content of coumarin-6 in brain was determined.
The conditions of data set [5]: rat. The method, then: (2) Method: 6- to 8-week old male Wistar rats were randomly divided into 3 groups, with 6 rats for each group. The rats were anesthetized by intraperitoneal injection of a pentobarbital solution (40 mg/kg), and jugular vein catheterization was performed. […] After treatment, the content of coumarin-6 in the blood was determined.

On to `CC(=O)O[C@@]12CO[C@@H]1C[C@H](O)[C@@]1(C)C(=O)[C@H](O)C3=C(C)[C@@H](OC(=O)[C@H](O)[C@@H](NC(=O)OC(C)(C)C)c4ccccc4)C[C@@](O)([C@@H](OC(=O)c4ccccc4)[C@H]21)C3(C)C` [docetaxel], for which the “sustained release in vivo (docetaxel detectable in blood)” value in data set [1] is reported as < 2 h. Besides, the “cell viability of the tumor cells” value in data set [2] is “no significant change”. Also, the “docetaxel in the brain after intravenous administration” value in data set [3] is given as “could not be detected in the brain”.
As to coumarin-6 [Free drug], in data set [4] (15 min-12 h), the “content of coumarin-6 in the brain tissue” value is ≤ 50 ng/g brain tissue. The “coumarin-6 in the brain tissue 8 h after administration” value in data set [4] (8 h) is “no coumarin-6 was detected”. In addition, the “release time in vivo (coumarin-6 detectable in blood)” value in data set [5] was ≤ 4 h. For the same molecule, in data set [5] (in vivo, iv), the “AUC0-t” value turned out to be 15.8 ± 2.4 µg·min/mL, the “AUC0-∞” value amounted to 16.0 ± 2.3 µg·min/mL, the “C0” value was 828.4 ± 139.0 ng/mL and the “CL” value was found to be 6.4 ± 0.9 mL/min. For the same molecule, in data set [5] (in vivo, iv), the “Vd, λz” value came out at 0.6 ± 0.3 L and the “t1/2, λz” value turned out to be 1 ± 0.4 h.
